The test system of one data set is F culmorum. The experiment in a line: Specific antifungal activity of Rs-AFP2 isoforms in SMF− and SMF+ media. Type of data set: cell-based. Further details: IC50 SMF− / IC50 SMF+: unit not given here. As to the method: For each isoform, two independent purifications were carried out and the antifungal activity was determined in duplicate using F culmorum as a test fungus in two different media: a low ionic strength medium called SMF-(Terras et al, 1992, J Biol Chem, 267:15301-15309) and the same medium supplemented with 1 mM CaCl2 and 50 mM KCl called SMF+. The presence of salts in the test medium, especially salts with divalent cations, reduces the specific activity of Rs-AFP2. Seed-purified as well as yeast-expressed wild type Rs-AFP2 served as a control in the assays.
The relative specific activity is expressed as the specific activity of the mutant divided by the specific activity of yRs-AFP2 and multiplied by 100. […] The specific activity was measured in medium SMF−and SMF+.
Deviations are given as standard error of the mean (sem) based on the triplicate experiments. In SMF−, the medium without added salts, most of the derivatives show no decrease or only a minor decrease in antifungal activity, while in SMF+, the medium with added salts, there is a significant decrease in antifungal activity for several Rs-AFP2 isoforms.

The subject of another data set is Fusarium culmorum. Kind of data set: Liquid growth inhibition assay in half strength potato dextrose broth. Type of data set: cell-based. As to the method:
Yeast cells transformed with either pTG3828, pMFprepro/Rs AFP2 or PMFpre/RsAFP2 were grown in selective SD medium until a saturated culture was obtained. To assess the antifungal activity of proteins secreted by the yeast cells, the supernatant of the yeast cultures was filtered (sterile 0.22 μm filter) and serially diluted in sterile water. Diluted samples (20 μl) were incubated in microtiter plate wells with 80 μl of half strength potato dextrose broth (Difco) containing spores 10^4 spores/ml) of Fusarium culmorum.
Growth of the fungi was monitored by microspectrophotometry as described by Broekaert et al (1990, FEMS Microbiol Lett, 69:55-60). Homogenates of yeast cells were prepared by spinning down 1 ml of a saturated yeast culture, suspending the cells in 200 μl of water, vortexing the cells in the presence of 0.2 g of glass beads (425-600 μm), and clearing the homogenate by centrifugation (1 min, 10000×g). Antifungal activity could only be detected in the culture medium of yeast cells transformed with pMFprepro/RsAFP2, which contained about 2 μg/ml of Rs-AFP2 equivalents. The activity of the homogenate of these cells, as well as that of culture media and cell homogenates of yeast cells transformed with pMFpre/RsAFP2 or pTG3828 transformed yeasts was below the detection limit (about 0.2 μg/ml of Rs-AFP2 equivalents).
The supernatant of 100 ml of a saturated culture of yeast transformed with pMFprepro/RsAFP2 (grown on minimal selective SD medium supplemented with 0.5% w/v of casamino acids) was centrifuged (4000 rpm, 10 min), and filtered (0.45 μm) to remove yeast cells and debris. Tris-HC1 (pH9) was added to the supernatant to a final concentration of 50 mM. The sample was loaded at a flow rate of 2 ml/min on an anion exchange chromatography column (Q-Sepharose Fast Flow, 20 ml bed volume, Pharmacia), on-line connected with a disposable reversed-phase C8 silica column (Bond Elut, 500 mg solid phase, Varian, Harbor City, USA). The antifungal activity was not retained on the Q-Sepharose matrix but bound to the C8 silica matrix. […] The latter eluate was dried in a rotating vacuum concentrator, redissolved in 0.5 ml 15% (v/v) acetonitrile containing 0.1% (v/v) TFA, and was loaded on a reversed-phase C2/C18 silica column (Pep-S, 5 μm beads, 0.4×25 cm, Pharmacia connected to a Waters 600 HPLC station pre-equilibriated with 15% acetonitrile containing 0.1% (v/v) TFA. After loading, the column was rinsed with the same buffer until the absorbance reached background level. The column was subsequently eluted with a 15 minute linear gradient from 15% to 50% acetonitrile containing 0.1% TFA at a flow rate of 1 ml/min. The eluate was monitored for proteins by on-line measurement of the absorbance at 280 nm. […] Twenty μl fractions were tested in a liquid growth inhibition assay: 20 μl samples were incubated in microtiter plate wells with 80 μl of half strength potato dextrose broth (Difco) containing 10^4 spores/ml of F culmorum; growth of the fungi was monitored by microspectrophotometry as described by Broekaert et al (1990, FEMS Microbiol Lett, 69: 55-60).
The specific antifungal activity of RPC-purified peak A material, as well as that of plant-derivable Rs-AFP2, was determined by measuring the percentage growth inhibition of F culmorum caused by serial dilutions of the protein samples. […]

Turning to “yRs-AFP2: yeast-expressed wild-type Rs-AFP2 (QKLCQRPSGTWSGVCGNNNACKNQCIRLEKARHGSCNYVFPAHKCICYFPC; listed as Raphanus sativus) [reference compound]”, the “RELATIVE SPECIFIC ACTIVITY (%) IN MEDIUM SMF+” value in the data set with F culmorum (1/IC50 of mutant divided by that of yRs-AFP2 x 100, 48 hour incubation, SMF with 1 mM CaCl2 and 50 mM KCl, preliminary tests) is recorded as 100%. Further, the “RELATIVE SPECIFIC ACTIVITY (%) IN MEDIUM SMF−” value in the data set on F culmorum (1/IC50 of mutant divided by that of yRs-AFP2 x 100, 48 hour incubation, low ionic strength medium, preliminary tests) is given as 100%. Further, the “IC50 SMF+” value in the data set on F culmorum (72 hours growth, high salt medium (1 mM CaCl2, 50 mM KCl), triplicate) was 8.5. Further, the “IC50 SMF−” value in the data set with F culmorum (72 hours growth, low salt medium, triplicate) is 2.7. Also, the “IC50 (concentration required for 50% growth inhibition)” value in the data set on Fusarium culmorum (F culmorum, from dose-response curves of serial dilutions) is reported as “about 3 μg/ml”. Further, the “type of inhibition (hyphal morphology)” value in the data set on Fusarium culmorum (F culmorum, induction of multiple branches near the tips) was “characteristic morphological distortion of the fungal hyphae”.

With “SIα2: Sorghum bicolor α-amylase inhibitor 2, partially homologous to Rs-AFP2”, the antifungal activity entry in the data set on Fusarium culmorum (assayed as described in Example 2) is recorded as “does not exhibit antifungal activity”.
